Source: patent US20120059051A1, “ORAL COMPOSITION CONTAINING EGCG AND LYCOPENE” (DSM IP ASSET B.V., priority 2006, published 2012)

What was measured:
MMP-1 = test: Inhibition of UV-A induced expression of matrix metalloproteinase-1 (real time PCR) in primary human dermal fibroblasts; type: cell-based; settings: skin fibroblasts; for % inhibition: inhibition of UV-A induced MMP-1 expression, 30 J/cm^2 UVA1; for MMP-1 expression relative to UV-A only treated cells: 30 J/cm^2 UVA1, MMP-1 RNA 24 hrs after irradiation, UV-A only = 100%
Experimental: Primary human dermal fibroblasts were cultured in EMEM without glutamine (Earle's Minimum Essential Medium), supplemented with antibiotics/antimycotics, 2 mM L-glutamine and 7.5% fetal calf serum at 37° C.[…] and grown to 100% confluency. Forty-eight hours prior to irradiation the cells were preincubated with the desired substances in EMEM (with AB/AM, L-Glutamine and 2% FCS. After 24 hours the medium was replaced by fresh medium with substances (fresh prepared). For irradiation, the medium was removed and after 6 wash steps with phosphate-buffered saline (PBS) replaced by phosphate-buffered saline (PBS). The plate was then exposed to 30 J/cm^2 UVA1. The UVA1 output was approximately 150 mW/cm^2. After irradiation the phosphate-buffered saline in the cell microplate was exchanged against culture medium (+7.5% FCS) with the substances (fresh prepared) and the cells were incubated in a CO2-incubator for further 24 hrs (MMP-1 determination). The culture medium was removed, the cells were rinsed with phosphate-buffered saline and the whole plate was frozen in liquid nitrogen. Total RNA was isolated using RNeasy Total RNA Kits (Qiagen, Hilden; Germany). The RNA concentration was determined via photometric measurement at 260/280. Aliquots of total RNA (75 ng) were applied for cDNA-Synthesis using Superscript™ First-Strand synthesis system for RT-PCR. Two samples for each compound were analyzed. The PCR reactions were carried out on an Opticon 1 (MJ Research, Waltham, Mass., USA) using SYBR Green® PCR Master Mix (Applied Biosystems, Darmstadt, Germany). For comparison of relative expression in real time PCR control cells and treated cells the 2 ^(−delta delta C(T)) method was used.

UVA-induced MMPI = settings: literature statement; increase only prevented in combination with vitamin E; cited from earlier work
UVA-induced collagenases = settings: literature statement; cited from earlier work
skin collagenases = settings: literature statement; cited from earlier work

Row | Compound | % inhibition (MMP-1) [%] | MMP-1 expression relative to UV-A only treated cells (MMP-1) [%] | effect on UVA-induced MMPI (UVA-induced MMPI) | effect on UVA-induced collagenases (UVA-induced collagenases) | effect on various skin collagenases (skin collagenases)
1 | CC(C)=CCC/C(C)=C/C=C/C(C)=C/C=C/C(C)=C/C=C/C=C(C)/C=C/C=C(C)/C=C/C=C(\C)CCC=C(C)C [Lycopene, lycopene] | 65 | 35 | further increase |  | 
2 | CC1=C(/C=C/C(C)=C/C=C/C(C)=C/C=C/C=C(C)/C=C/C=C(C)/C=C/C2=C(C)CCCC2(C)C)C(C)(C)CCC1 [betacarotene] |  |  |  | repress | 
3 | (−)-epigallocatechin gallate [EGCG] | 13 | 87 |  |  | suppress
